Reference: patent US4472383A, “Peptide derivatives, their production and use” (Takeda Chemical Industries, Ltd., priority 1982, dated 1984)

Test system: Hypertensive Activity of Angiotensin I
Assay: Effect against hypertensive activity of angiotensin I in anesthetized-prepared rats (oral administration)
Format: in vivo, Male rats (Sprague-Dawley)
Conditions: rat, 13.8 μM/kg orally, angiotensin I 300 ng/kg i.v., corrected for angiotensin II response; for Percent Inhibition (%) against Hypertensive Reaction by Angiotensin I After 20 min.: 20 min after administration; for Percent Inhibition (%) against Hypertensive Reaction by Angiotensin I After 60 min.: 60 min after administration; for Percent Inhibition (%) against Hypertensive Reaction by Angiotensin I After 120 min.: 120 min after administration
Protocol: Effect of Present Compounds against Hypertensive Activity of Angiotensin I Male rats (Sprague-Dawley) weighing 250 g to 350 g which were fed under free access to drinking water and feeds were used as experimental animals. The rats were anesthetized with intraperitoneal administration of pentobarbital sodium (50 mg/kg) on the day before the test day and a polyethylene tube was inserted into each of the femoral artery for measurement of blood pressure and the femoral vein for injection of angiotensin I and II, and then the tubes were fixed. […] Then, 13.8 μM/kg of the compound of this invention was administered orally as an aqueous solution or an aqueous gum arabic suspension, and 20, 60 and 120 minutes after the administration, angiotensin I and II were injected repeatedly to trace hypertensive reactions. In calculating the percent inhibition to the hypertensive activity of angiotensin I, the percent inhibitory value was corrected based on the variation with time in the hypertensive reaction by angiotensin II.

Structure (SMILES)	Percent Inhibition (%) against Hypertensive Reaction by Angiotensin I After 20 min. [%]	Percent Inhibition (%) against Hypertensive Reaction by Angiotensin I After 60 min. [%]	Percent Inhibition (%) against Hypertensive Reaction by Angiotensin I After 120 min. [%]
CCCCOC(=O)[C@H](CCc1ccccc1)N[C@@H](C)C(=O)N(CC(=O)N[C@@H](Cc1ccccc1)C(=O)O)C1CCCC1.Cl [Example 6, N-[1(S)-butoxycarbonyl-3-phenylpropyl]-L-alanyl-N-cyclopentylglycyl-L-phenylalanine hydrochloride]	72	84	72
Br.CCOC(=O)[C@H](CCc1ccccc1)N[C@@H](C)C(=O)N(CC(=O)N[C@@H](Cc1ccccc1)C(=O)O)C1Cc2ccccc2C1 [Example 3, N-[1(S)-ethoxycarbonyl-3-phenylpropyl]-L-alanyl-N-(2-indanyl)glycyl-L-phenylalanine hydrobromide]	67	73	77
